Laboratory results taken from patent publication US12281122B1, “PI3K inhibitors” (Cogent Biosciences, Inc., priority 2023, dated 2025).

Key:
[1] = tested on: T47D (PI3Kα-H1047R) cell line; assay: HTRF phospho-AKT(S473) cell assay in T47D cells; type: cell-based, human; details: Homo sapiens; HTRF phospho-AKT(S473), T47D (PI3Kα-H1047R) cells, 2 hours compound incubation
Procedure, shortened: (§1)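 T47D (PI3Kα-H1047R; RPMI, 10% FBS, insulin) and SKBR3 (wild-type PI3Kα; McCoy's 5A, 10% FBS) cells treated 2 h at 37 °C with 12-point 1:3 dilutions, top 5 μM and 10 μM respectively, ≤0.5% DMSO. SKBR3 stimulated with 70 ng/ml PDGF-BB for the last 15 min; lysate pAKT(S473) by HTRF, IC50 from curves.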

[2] = tested on: SKBR3 (PI3Kα-Wild Type) cell line; assay: HTRF phospho-AKT(S473) cell assay in SKBR3 cells; type: cell-based, human; details: Homo sapiens, SK-BR-3; HTRF phospho-AKT(S473), SKBR3 (PI3Kα-Wild Type) cells, 2 hours compound incubation, PDGF-BB stimulated
Procedure, shortened: as §1

Compound | IC50 [1] [nM] | IC50 [2] [nM]
Cc1cc([C@@H](C)Nc2ccc(Cl)nc2C(=O)NS(C)(=O)=O)c2nc(N3C[C@@H]4[C@H](C3)[C@H]4c3ncn(C)n3)n(C)c(=O)c2c1 [Compound 507, 6-chloro-3-(((R)-1-(3,6-dimethyl-2-((1R,5S,6R)-6-(1-methyl-1H-1,2,4-triazol-3-yl)-3-azabicyclo[3.1.0]hexan-3-yl)-4-oxo-3,4-dihydroquinazolin-8-yl)ethyl)amino)-N-(methylsulfonyl) picolinamide] | 250 to 500 | 1000 to 5000
Cc1cc([C@@H](C)Nc2ccc(Cl)nc2C(=O)NS(C)(=O)=O)c2nc(N3C[C@@H]4[C@H](C3)[C@H]4c3cc4ncccn4n3)n(C)c(=O)c2c1 [Compound 508, 6-chloro-3-(((R)-1-(3,6-dimethyl-4-oxo-2-((1R,5S,6R)-6-(pyrazolo[1,5-a]pyrimidin-2-yl)-3-azabicyclo[3.1.0]hexan-3-yl)-3,4-dihydroquinazolin-8-yl)ethyl)amino)-N-(methylsulfonyl) picolinamide] | < 250 | 1000 to 5000
Cc1cc([C@@H](C)Nc2ccc(Cl)nc2C(=O)NS(C)(=O)=O)c2nc(N3CCC(c4ncc(C5CC5)cn4)CC3)n(C)c(=O)c2c1 [Compound 509, (R)-6-chloro-3-((1-(2-(4-(5-cyclopropylpyrimidin-2-yl)piperidin-1-yl)-3,6-dimethyl-4-oxo-3,4-dihydroquinazolin-8-yl)ethyl)amino)-N-(methylsulfonyl) picolinamide] | 250 to 500 | ≥ 5000
Cc1cc([C@@H](C)Nc2ccc(Cl)nc2C(=O)NS(C)(=O)=O)c2nc(N3C[C@@H]4[C@H](C3)[C@H]4c3cc(C)[nH]n3)n(C)c(=O)c2c1 [Compound 510, 6-chloro-3-(((R)-1-(3,6-dimethyl-2-((1R,5S,6R)-6-(5-methyl-1H-pyrazol-3-yl)-3-azabicyclo[3.1.0]hexan-3-yl)-4-oxo-3,4-dihydroquinazolin-8-yl)ethyl)amino)-N-(methylsulfonyl) picolinamide] | 250 to 500 | 1000 to 5000
Cc1cc([C@@H](C)Nc2ccc(Cl)nc2C(=O)NS(C)(=O)=O)c2nc(N3CCC(c4cc(C5CC5)[nH]n4)CC3)n(C)c(=O)c2c1 [Compound 511, (R)-6-chloro-3-((1-(2-(4-(5-cyclopropyl-1H-pyrazol-3-yl)piperidin-1-yl)-3,6-dimethyl-4-oxo-3,4-dihydroquinazolin-8-yl)ethyl)amino)-N-(methylsulfonyl) picolinamide] | 500 to 1000 | ≥ 5000
Cc1cc([C@@H](C)Nc2ccc(Cl)nc2C(=O)NS(C)(=O)=O)c2nc(N3CC[C@H](Oc4cnc(C)nc4)C3)n(C)c(=O)c2c1 [Compound 512, 6-chloro-3-(((R)-1-(3,6-dimethyl-2-((S)-3-((2-methylpyrimidin-5-yl)oxy)pyrrolidin-1-yl)-4-oxo-3,4-dihydroquinazolin-8-yl)ethyl)amino)-N-(methylsulfonyl) picolinamide] | 250 to 500 | 1000 to 5000
Cc1cc([C@@H](C)Nc2ccc(Cl)nc2C(=O)NS(C)(=O)=O)c2nc(N3CC[C@H](Oc4ccc(F)cn4)C3)n(C)c(=O)c2c1 [Compound 513, 6-chloro-3-(((R)-1-(2-((S)-3-((5-fluoropyridin-2-yl)oxy)pyrrolidin-1-yl)-3,6-dimethyl-4-oxo-3,4-dihydroquinazolin-8-yl)ethyl)amino)-N-(methylsulfonyl) picolinamide] | 250 to 500 | ≥ 5000
Cc1cc([C@@H](C)Nc2ccc(Cl)nc2C(=O)NS(C)(=O)=O)c2nc(N3Cc4ccc(C)nc4C3)n(C)c(=O)c2c1 [Compound 514, (R)-6-chloro-3-((1-(3,6-dimethyl-2-(2-methyl-5,7-dihydro-6H-pyrrolo[3,4-b]pyridin-6-yl)-4-oxo-3,4-dihydroquinazolin-8-yl)ethyl)amino)-N-(methylsulfonyl) picolinamide] | < 250 | 1000 to 5000
Cc1cnc(C2[C@H]3CN(c4nc5c([C@@H](C)Nc6ccc(Cl)nc6C(=O)NS(C)(=O)=O)cc(C)cc5c(=O)n4C)C[C@@H]23)nc1 (stereo partly drawn) [Compound 515, 6-chloro-3-(((1R)-1-(3,6-dimethyl-2-((1R,5S)-6-(5-methylpyrimidin-2-yl)-3-azabicyclo[3.1.0]hexan-3-yl)-4-oxo-3,4-dihydroquinazolin-8-yl)ethyl)amino)-N-(methylsulfonyl) picolinamide] | < 250 | 1000 to 5000
Cc1cc([C@@H](C)Nc2ccc(Cl)nc2C(=O)NS(C)(=O)=O)c2nc(N3Cc4cnc(C)cc4C3)n(C)c(=O)c2c1 [Compound 516, (R)-6-chloro-3-((1-(3,6-dimethyl-2-(6-methyl-1,3-dihydro-2H-pyrrolo[3,4-c]pyridin-2-yl)-4-oxo-3,4-dihydroquinazolin-8-yl)ethyl)amino)-N-(methylsulfonyl) picolinamide] | < 250 | 1000 to 5000
Cc1cc([C@@H](C)Nc2ccc(Cl)nc2C(=O)NS(C)(=O)=O)c2nc(N3Cc4cncnc4C3)n(C)c(=O)c2c1 [Compound 517, (R)-6-chloro-3-((1-(2-(5,7-dihydro-6H-pyrrolo [3,4-d]pyrimidin-6-yl)-3,6-dimethyl-4-oxo-3,4-dihydroquinazolin-8-yl)ethyl)amino)-N-(methylsulfonyl) picolinamide] | 250 to 500 | 1000 to 5000
Cc1cc([C@@H](C)Nc2ccc(Cl)nc2C(=O)NS(C)(=O)=O)c2nc(N3C[C@@H]4[C@H](C3)[C@H]4c3cnc(C)o3)n(C)c(=O)c2c1 [Compound 518, 6-chloro-3-(((R)-1-(3,6-dimethyl-2-((1R,5S,6R)-6-(2-methyloxazol-5-yl)-3-azabicyclo[3.1.0]hexan-3-yl)-4-oxo-3,4-dihydroquinazolin-8-yl)ethyl)amino)-N-(methylsulfonyl) picolinamide] | < 250 | 1000 to 5000
COc1cc([C@H]2[C@@H]3CN(c4nc5c([C@@H](C)Nc6ccc(Cl)nc6C(=O)NS(C)(=O)=O)cc(C)cc5c(=O)n4C)C[C@@H]32)n(C)n1 [Compound 519, 6-chloro-3-(((R)-1-(2-((1R,5S,6R)-6-(3-methoxy-1-methyl-1H-pyrazol-5-yl)-3-azabicyclo[3.1.0]hexan-3-yl)-3,6-dimethyl-4-oxo-3,4-dihydroquinazolin-8-yl)ethyl)amino)-N-(methylsulfonyl) picolinamide] | < 250 | 1000 to 5000
Cc1cc([C@@H](C)Nc2ccc(Cl)nc2C(=O)NS(C)(=O)=O)c2nc(N3C[C@@H]4[C@H](C3)[C@H]4c3cc4n(n3)CCO4)n(C)c(=O)c2c1 [Compound 520, 6-chloro-3-(((R)-1-(2-((1R,5S,6R)-6-(2,3-dihydropyrazolo[5,1-b]oxazol-6-yl)-3-azabicyclo[3.1.0]hexan-3-yl)-3,6-dimethyl-4-oxo-3,4-dihydroquinazolin-8-yl)ethyl)amino)-N-(methylsulfonyl) picolinamide] | < 250 | 1000 to 5000
Cc1cc([C@@H](C)Nc2ccc(Cl)nc2C(=O)NS(C)(=O)=O)c2nc(N3CCC(c4cnc(C)o4)CC3)n(C)c(=O)c2c1 [Compound 521, (R)-6-chloro-3-((1-(3,6-dimethyl-2-(4-(2-methyloxazol-5-yl)piperidin-1-yl)-4-oxo-3,4-dihydroquinazolin-8-yl)ethyl)amino)-N-(methylsulfonyl) picolinamide] | < 250 | 1000 to 5000
Cc1cc([C@@H](C)Nc2ccc(Cl)nc2C(=O)NS(C)(=O)=O)c2nc(N3C[C@@H]4[C@H](C3)[C@H]4c3cnc(C(F)F)nc3)n(C)c(=O)c2c1 [Compound 522, 6-chloro-3-(((R)-1-(2-((1R,5S,6S)-6-(2-(difluoromethyl)pyrimidin-5-yl)-3-azabicyclo[3.1.0]hexan-3-yl)-3,6-dimethyl-4-oxo-3,4-dihydroquinazolin-8-yl)ethyl)amino)-N-(methylsulfonyl) picolinamide] | < 250 | 1000 to 5000
Cc1cc([C@@H](C)Nc2ccc(Cl)nc2C(=O)NS(C)(=O)=O)c2nc(N3CCC(c4nc(C)nn4C)CC3)n(C)c(=O)c2c1 [Compound 523, (R)-6-chloro-3-((1-(2-(4-(1,3-dimethyl-1H-1,2,4-triazol-5-yl)piperidin-1-yl)-3,6-dimethyl-4-oxo-3,4-dihydroquinazolin-8-yl)ethyl)amino)-N-(methylsulfonyl) picolinamide] | 250 to 500 | ≥ 5000
Cc1cc([C@@H](C)Nc2ccc(Cl)nc2C(=O)NS(C)(=O)=O)c2nc(N3C[C@@H]4[C@H](C3)[C@H]4c3cc(C4CC4)[nH]n3)n(C)c(=O)c2c1 [Compound 524, 6-chloro-3-(((R)-1-(2-((1R,5S,6R)-6-(5-cyclopropyl-1H-pyrazol-3-yl)-3-azabicyclo[3.1.0]hexan-3-yl)-3,6-dimethyl-4-oxo-3,4-dihydroquinazolin-8-yl)ethyl)amino)-N-(methylsulfonyl) picolinamide] | < 250 | 1000 to 5000
Cc1cc([C@@H](C)Nc2ccc(Cl)nc2C(=O)NS(C)(=O)=O)c2nc(N3CCC(c4ncc(C)nc4C)CC3)n(C)c(=O)c2c1 [Compound 525, (R)-6-chloro-3-((1-(2-(4-(3,5-dimethylpyrazin-2-yl)piperidin-1-yl)-3,6-dimethyl-4-oxo-3,4-dihydroquinazolin-8-yl)ethyl)amino)-N-(methylsulfonyl) picolinamide] | < 250 | ≥ 5000
CCn1c(N2CCC(n3cc(C)cn3)CC2)nc2c([C@@H](C)Nc3ccc(Cl)nc3C(=O)NS(C)(=O)=O)cc(C)cc2c1=O [Compound 526, (R)-6-chloro-3-((1-(3-ethyl-6-methyl-2-(4-(4-methyl-1H-pyrazol-1-yl)piperidin-1-yl)-4-oxo-3,4-dihydroquinazolin-8-yl)ethyl)amino)-N-(methylsulfonyl) picolinamide] | < 250 | 1000 to 5000
